Paper PMC5562236, “Properties of Two Novel Esterases Identified from Culture Supernatant of Penicillium purpurogenum Grown on Sugar Beet Pulp” (Insights in enzyme research, 2016)

Test system: T1, FAET
T1 construct: full-length cDNA (introns removed) with own signal peptide in pPICZB, stop codon kept, no tag seen; secreted by Pichia pastoris GS115, culture supernatant, no purification described
Test: pNP release at […] nm, microplate, recombinant P. pastoris culture supernatant
Assay type: biochemical, Talaromyces purpureogenus
Conditions: 100 mM sodium phosphate pH 5.8, 28 °C (general pNP assay)

Row | Km [µM] | SMILES
1 | 2300 | CC(=O)Oc1ccc([N+](=O)[O-])cc1 [pNP-acetate]
2 | 1400 | COc1cc(/C=C/C(=O)Oc2ccc([N+](=O)[O-])cc2)ccc1O [pNP-ferulate]
